Data taken from patent US7544814B2, “[3.2.0] Heterocyclic compounds and methods of using the same” (Nereus Pharmaceuticals, Inc., priority 2004, dated 2009).
Several values for one entry are separate records, joined by “and”; a condition that tells them apart may be missing. Equal values may be shown once. Read-outs that look alike come from different tables or passages of the source.

Tests used:
NF-κB = assay: NF-κB-mediated luciferase reporter gene assay, HEK293 NF-κB/Luc cells, TNF-α stimulation; format: cell-based, human; conditions: for effect on luciferase activity upon TNF-α stimulation, in words: pretreatment of NF-κB/Luc 293 cells
Description: The HEK293 NF-κB/luciferase reporter cell line is a derivative of the human embryonic kidney cell line (ATCC; CRL-1573) and carries a luciferase reporter gene under the regulation of 5× NF-κB binding sites. […] When performing the luciferase assay, the DMEM basal medium was replaced with phenol-red free DMEM basal medium and the G418 was omitted.
For NF-κB-mediated luciferase assays, HEK293 NF-κB/luciferase cells were seeded at 1.5×10^4 cells/well in 90 μl phenol-red free DMEM complete medium into Corning 3917 white opaque-bottom tissue culture plates. For Formula II-2, Formula II-4, Formula II-5A, and Formula II-18, a 400 μM starting dilution was made in 100% DMSO and this dilution was used to generate a 8-point half log dilution series. […] For Formula II-20, a 2.5 mM or 8 mM starting solution was made in 100% DMSO and the final test concentrations ranged from 6.3 μM to 2.0 nM or 20 μM to 6.3 nM, respectively. The plates were returned to the incubator for 1 hour. After 1 hr pretreatment, 10 μl of a 50 ng/ml TNF-α solution, prepared in the phenol-red free DMEM medium was added, and the plates were incubated for an additional 6 hr.
At the end of the TNF-α stimulation, 100 μl of Steady Lite HTS luciferase reagent (Packard Bioscience) was added to each well and the plates were left undisturbed for 10 min at room temperature before measuring the luciferase activity. The relative luciferase units (RLU) were measured by using a Fusion microplate fluorometer (Packard Bioscience).

U266 = assay: Cell growth inhibition (resazurin), U266; conditions: for EC50: 48 hours drug exposure; for cytotoxicity against U266, in words: from EC50 values
RPMI 8226 = assay: Cell growth inhibition (resazurin), RPMI 8226; conditions: for cytotoxicity against RPMI 8226, in words: from EC50 values
[1] = target: T1, chymotrypsin-like activity of purified rabbit muscle 20S proteasome (Oryctolagus cuniculus, UniProt G1T4Q9); assay: In vitro inhibition of 20S proteasome chymotrypsin-like activity (suc-LLVY-AMC)
T1 sequence (G1T4Q9 1-263): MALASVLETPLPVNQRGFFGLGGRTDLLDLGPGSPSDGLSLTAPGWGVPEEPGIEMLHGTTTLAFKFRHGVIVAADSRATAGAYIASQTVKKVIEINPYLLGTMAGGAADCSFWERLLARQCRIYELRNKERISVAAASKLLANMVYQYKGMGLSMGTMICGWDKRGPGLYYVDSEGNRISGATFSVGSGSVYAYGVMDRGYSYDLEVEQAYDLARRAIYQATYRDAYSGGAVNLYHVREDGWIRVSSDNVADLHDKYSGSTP

[2] = target: T2, trypsin-like activity of purified rabbit muscle 20S proteasome (Oryctolagus cuniculus, UniProt G1SWK8); assay: biochemical
T2 sequence (G1SWK8 1-271): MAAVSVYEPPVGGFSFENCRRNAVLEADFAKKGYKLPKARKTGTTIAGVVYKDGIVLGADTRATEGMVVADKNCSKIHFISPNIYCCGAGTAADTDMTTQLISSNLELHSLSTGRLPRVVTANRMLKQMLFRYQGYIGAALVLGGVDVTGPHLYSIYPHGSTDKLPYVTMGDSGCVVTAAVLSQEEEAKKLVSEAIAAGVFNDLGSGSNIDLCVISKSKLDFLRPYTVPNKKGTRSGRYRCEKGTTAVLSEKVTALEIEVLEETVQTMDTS

[3] = target: T3, caspase-like activity of purified rabbit muscle 20S proteasome (Oryctolagus cuniculus, UniProt A0A5F9DQW2); assay: In vitro inhibition of 20S proteasome caspase-like activity (Z-LLE-AMC)
T3 sequence (A0A5F9DQW2 1-212): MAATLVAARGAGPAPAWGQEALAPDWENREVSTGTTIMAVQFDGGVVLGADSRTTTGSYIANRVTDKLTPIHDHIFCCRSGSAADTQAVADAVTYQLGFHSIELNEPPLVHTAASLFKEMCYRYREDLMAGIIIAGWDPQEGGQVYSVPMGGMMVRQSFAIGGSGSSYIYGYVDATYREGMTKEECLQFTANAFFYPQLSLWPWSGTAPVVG

[4] = target: T2, trypsin-like activity of purified rabbit muscle 20S proteasome; assay: In vitro inhibition of 20S proteasome trypsin-like activity (Boc-LRR-AMC); conditions: for inhibition of the trypsin-like activity of the 20S proteasome, in words: under the conditions tested
[5] = Homo sapiens, HEK293, Table 5, values printed in μM, 1 hr pretreatment, TNF-α 6 hr, read-out: EC50, NF-κB-mediated luciferase reporter gene assay
[6] = Homo sapiens, U-266, 48 h, read-out: U266 EC50, Table 2
[7] = Homo sapiens, RPMI-8226, 48 h, read-out: RPMI 8226 EC50, Table 2, 48 hours drug exposure, mean ± SD where n≥3
[8] = read-out: RPMI 8226 EC50, Table 2, 48 hours drug exposure, mean ± SD where n≥3
[9] = EC50 Chymotrypsin-like, Table 6, values in nM
[10] = EC50 values, chymotrypsin-like activity, summary of Table 6
[11] = EC50 Caspase-like, Table 6, values in μM
[12] = EC50 Chymotrypsin-like, Table 6, values in μM
[13] = EC50 values, chymotrypsin-like activity, range or bound stated in text, summary of Table 6
[14] = Table 5, values in μM, 1 hr pretreatment, TNF-α 6 hr, read-out: EC50, NF-κB-mediated luciferase reporter gene assay
[15] = EC50 values, caspase-like activity, range in mixed units, summary of Table 6, range from nM to μM
[16] = Homo sapiens, HEK293, read-out: EC50, NF-κB-mediated luciferase reporter gene assay, Table 5, values in nM, 1 hr pretreatment, TNF-α 6 hr
[17] = Homo sapiens, HEK293, read-out: EC50, NF-κB-mediated luciferase reporter gene assay, Table 5, values in μM, 1 hr pretreatment, TNF-α 6 hr

| Structure (SMILES) | EC50 (RPMI 8226; [7]) [nM] | cytotoxicity against RPMI 8226, in words (RPMI 8226) | EC50 (RPMI 8226; [8]) [nM] | EC50 [1, 9] | EC50 [1, 10] [nM] | EC50 [2] | EC50 [3, 11] | inhibition of the trypsin-like activity of the 20S proteasome, in words [4] | effect on luciferase activity upon TNF-α stimulation, in words (NF-κB) | other results |
| --- | --- | --- | --- | --- | --- | --- | --- | --- | --- | --- |
| C[C@@]12OC(=O)[C@]1(C(O)[C@@H]1C=CCCC1)NC(=O)[C@@H]2CCCl (single isomer, unassigned) [Formula II-25] | > 20000 |  |  |  |  |  |  |  |  | EC50 (NF-κB; [5]): > 20 µM; EC50 (U266; [6]): > 20000 nM |
| CC12OC(=O)C1(CC1C=CCCC1)NC(=O)C2CCCl (stereo not shown) [Formula I-7] | 240 | cytotoxic | 250 | 52 ± 2 nM | 13 to 88 |  |  |  |  |  |
| CC12OC(=O)C1(C(=O)C1C=CCCC1)NC(=O)C2CCCl (stereo not shown) [Formula II-13C] |  |  |  |  |  | 8600 nM and 12800 nM | > 20 µM | able to inhibit |  | EC50 [1, 12]: 7600 nM and 8800 nM; EC50 [1, 13]: 1400 to 10600 nM |
| C[C@@]12OC(=O)[C@]1([C@@H](O)[C@@H]1C=CCCC1)NC(=O)[C@@H]2CCO [Formula II-21] | > 20000 |  |  | 8 nM | 2 to 11 | 879 nM | 2.6 µM and 2.3 µM | able to inhibit | dose-dependent decrease | EC50 (NF-κB; [5]): 3.2 µM; EC50 (NF-κB; [14]): 2.7 µM; EC50 (NF-κB; Table 12, read-out: NF-κB EC50): 2.71 µM; EC50 (U266; [6]): 6090 nM; cytotoxicity against U266, in words (U266): cytotoxic; EC50 (U266; read-out: U266 EC50, Table 2): 9670 nM; EC50 (RPMI 8226; Homo sapiens, RPMI-8226, read-out: Cytotoxicity RPMI EC50, Table 12): > 20000 nM; EC50 [3, 15]: 0.956 to 8.7 µM; EC50 ([3]; Proteasome Caspase-like EC50, Table 12): 2.58 µM and 2.33 µM; EC50 ([4]; read-out: Proteasome Trypsin-like EC50, Table 12): 879 nM; EC50 ([1]; Proteasome Chymotrypsin-like EC50, Table 12): 8 nM |
| CCC(=O)OCC[C@H]1C(=O)N[C@@]2([C@@H](O)[C@@H]3C=CCCC3)C(=O)O[C@@]12C [Formula II-22] | 9720 | cytotoxic | 11200 | 7 nM and 3 nM | 2 to 11 | 289 nM | 1.3 µM and 1.4 µM | able to inhibit | dose-dependent decrease | EC50 (NF-κB; [16]): 0.728 µM; EC50 (NF-κB; [17]): 1 µM; cytotoxicity against U266, in words (U266): cytotoxic; EC50 [3, 15]: 0.956 to 8.7 µM |
| CC[C@@]12OC(=O)[C@]1([C@@H](O)[C@@H]1C=CCCC1)NC(=O)[C@@H]2CCCl [Formula II-24C] | 2320 | cytotoxic | 1640 |  |  | 3300 nM and 3100 nM | > 20 µM | able to inhibit | dose-dependent decrease | EC50 (NF-κB; [17]): 5.3 µM; EC50 (U266; [6]): 1150 nM; cytotoxicity against U266, in words (U266): cytotoxic; EC50 (U266; read-out: U266 EC50, Table 2): 825 nM; EC50 [1, 12]: 2000 nM; EC50 [1, 13]: 1400 to 10600 nM |
| C[C@@]12OC(=O)[C@]1([C@@H](O)[C@@H]1C=CCCC1)NC(=O)[C@H]2CCCl [Formula II-26] | 2230 | cytotoxic | 1610 |  |  |  |  | able to inhibit | dose-dependent decrease | EC50 (NF-κB; [5]): 4.3 µM; EC50 (NF-κB; [14]): 4.1 µM; cytotoxicity against U266, in words (U266): cytotoxic; EC50 (U266; read-out: U266 EC50, Table 2): 829 nM |
| CC[C@@H]1C(=O)N[C@@]2([C@@H](O)[C@@H]3C=CCCC3)C(=O)O[C@@]12C [Formula II-27] |  |  |  |  |  | > 20000 nM |  |  |  | EC50 (NF-κB; [5]): > 20 µM |
| C[C@@H]1C(=O)N[C@@]2([C@@H](O)[C@@H]3C=CCCC3)C(=O)O[C@@]12C [Formula II-28] | > 20000 |  |  |  |  | > 20000 nM | > 20 µM |  |  | EC50 (NF-κB; [17]): > 20 µM; EC50 (U266; [6]): > 20000 nM; EC50 [1, 12]: 3200 nM and 3300 nM; EC50 [1, 13]: 1400 to 10600 nM |
| C[C@@]12OC(=O)[C@]1(C(=O)C1=CC(O)CCC1)NC(=O)[C@]2(C)CCCl (stereo partly shown) [Formula II-31] | > 20000 |  |  |  |  |  |  |  |  |  |
| C[C@@]12OC(=O)[C@]1(C(=O)C1=CC(O)CCC1)NC(=O)[C@]2(C)CCCl (stereo partly shown) [Formula II-32] |  |  | > 20000 |  |  |  |  |  |  |  |
| C[C@@]12OC(=O)[C@]1([C@@H](O)[C@@H]1C=CCCC1)NC(=O)[C@@H]2CCN=C=S [Formula II-38] | 2600 | cytotoxic | 1800 | 3.4 ± 0.2 nM | 2 to 11 |  |  |  |  |  |
| COC(=O)CCSC(=O)[C@]1([C@@H](O)[C@@H]2C=CCCC2)NC(=O)[C@H](CCCl)[C@]1(C)O [Formula II-44] | 12 | cytotoxic | 8.8 | 11 nM and 8.7 nM | 2 to 11 | 55 nM and 54 nM | 1.4 µM | able to inhibit | dose-dependent decrease | EC50 (NF-κB; [16]): 0.017 ± 0.004 µM; EC50 [3, 15]: 0.956 to 8.7 µM |
| CC[C@H]1C(=O)N[C@](C(=O)SCCC(=O)OC)([C@@H](O)[C@@H]2C=CCCC2)[C@@]1(C)O [Formula II-47] | 8000 ± 3400 | cytotoxic |  | 50 ± 10 nM | 13 to 88 |  |  |  |  |  |
| COC(=O)C(CSC(=O)[C@]1([C@@H](O)[C@@H]2C=CCCC2)NC(=O)[C@H](CCCl)[C@]1(C)O)NC(C)=O (stereo partly shown) [Formula II-50] | 10 | cytotoxic |  |  |  |  |  |  |  |  |
| COC(=O)CCSC(=O)C1(C(O)C2C=CCCC2)NC(=O)C2CCOC21C (stereo not shown) [Formula VI-1A] | 8400 | cytotoxic | 7800 | 274 nM and 207 nM | 207 to 964 | 3100 nM and 3000 nM | 7.9 µM and 8.7 µM | able to inhibit |  | EC50 (NF-κB; [17]): > 20 µM; EC50 [3, 15]: 0.956 to 8.7 µM |
